Data: patent US20240401144A2, “PRIMER-PROBE COMPOSITION, KIT, AND DETECTION METHOD” (ASCENTAWITS PHARMACEUTICALS, LTD., priority 2021, published 2024)

What was measured:
[1] = system: NCI-H2228 NSCLC cell line; experiment: Ex vivo proliferation assay, 72 h exposure; assay type: cell-based; settings: Homo sapiens; NCI-H2228, 72 h of exposure; read-out: 3424 IC50
Experimental: (§1) Exponentially growing cells were inoculated. After 24 h, the test compound OBI-3424 was added. After addition of the test compound OBI-3424, plates were incubated in a standard tissue incubator at 37° C. for the indicated hours. At the end of the experiment, viable cells were detected using the CellTiter Glo (CTG) assay kit or AlamarBlue. Drug concentrations (IC50) resulting in 50% growth inhibition relative to untreated control were calculated using XLfit (IDBS, Boston, MA) or Prism 6 (GraphPad, San Diego, CA).
(§2) After exposing the hepatocellular carcinoma cell lines to compound OBI-3424 for 96 h and exposing the NSCLC cell lines to compound OBI-3424 for 72 h, the IC50 value was determined by ex vivo proliferation assay, and the expression of AKR1C3 protein in hepatocellular carcinoma cell lines was determined by Western blotting (tubulin was used as loading control). The expression data of AKR1C3 RNA in the hepatocellular carcinoma cell lines and in the NSCLC cell lines were from CrownBio database (https://db.crownbio.com/Crownbio/OncoExpress_Login.aspx).

[2] = system: NCI-H1792 NSCLC cell line; experiment: Ex vivo proliferation assay, 72 h exposure; assay type: cell-based; settings: Homo sapiens; NCI-H1792, 72 h of exposure; read-out: 3424 IC50
Experimental: as §1, §2

[3] = system: NCI-H2110 NSCLC cell line; experiment: Ex vivo proliferation assay, 72 h exposure; assay type: cell-based; settings: Homo sapiens; NCI-H2110, 72 h of exposure; read-out: 3424 IC50
Experimental: as §1, §2

NCI-H23 NSCLC cell line = experiment: Ex vivo proliferation assay, 72 h exposure; assay type: cell-based; settings: Homo sapiens; NCI-H23, 72 h of exposure; read-out: 3424 IC50
Experimental: as §1, §2

NCI-H522 NSCLC cell line = experiment: Ex vivo proliferation assay, 72 h exposure; assay type: cell-based; settings: Homo sapiens; NCI-H522, 72 h of exposure; read-out: 3424 IC50
Experimental: as §1, §2

[4] = system: NCI-H1944 NSCLC cell line; experiment: Ex vivo proliferation assay, 72 h exposure; assay type: cell-based; settings: Homo sapiens; NCI-H1944, 72 h of exposure; read-out: 3424 IC50
Experimental: as §1, §2

[5] = system: NCI-H1563 NSCLC cell line; experiment: Ex vivo proliferation assay, 72 h exposure; assay type: cell-based; settings: Homo sapiens; NCI-H1563, 72 h of exposure; read-out: 3424 IC50
Experimental: as §1, §2

NCIH1755 NSCLC cell line = experiment: Ex vivo proliferation assay, 72 h exposure; assay type: cell-based; settings: Homo sapiens, NCI-H1755; NCIH1755, 72 h of exposure; read-out: 3424 IC50
Experimental: as §1, §2

NCIH2106 NSCLC cell line = experiment: Ex vivo proliferation assay, 72 h exposure; assay type: cell-based; settings: Homo sapiens; NCIH2106, 72 h of exposure; read-out: 3424 IC50
Experimental: as §1, §2

TF-1 cell line = experiment: Ex vivo cytotoxicity assay, leukemia cell lines; assay type: cell-based; settings: Homo sapiens; Table 5: TF-1, Erythroleukemia, 72 h; AKR1C3 expression Medium
Experimental: (§3) Leukemia cell lines were suspended in RPMI medium supplemented with FBS (Biosera), while ALL PDX cells were cultured in QBSF medium (Quality Biological Inc.,) supplemented with Flt-3 ligand (20 ng/ml, BioNovus Life Sciences) or IL7 (10-20 ng/ml, Jomar Life Research). Cells were inoculated according to the optimal cell density and incubated for 3h or overnight (37° C., 5% CO2). PDX cells and leukemia cell lines were treated with OBI-3424 ([…]) or medium control for 48 or 72 h, respectively. Viability was determined using Alamar Blue reduction assay or Cell Titer-Glo Luminescent Cell Viability Assay (Promega). The half-maximal inhibitory concentration (IC50) was used to calculate the interpolation of nonlinear regression curves by GraphPad Prism 7 software.
(§4) The expression levels of AKR1C3 protein was determined by Western blot analysis. The ex vivo cytotoxicity of OBI-3424 was determined using CellTiter-Glo assay and calculated as 50% maximum inhibitory concentration (IC50).

TALL-1 cell line = experiment: Ex vivo cytotoxicity assay, leukemia cell lines; assay type: cell-based; settings: Homo sapiens
Experimental: as §3, §4

THP-1 cell line = experiment: Ex vivo cytotoxicity assay, leukemia cell lines; assay type: cell-based; settings: Homo sapiens; Table 5: THP-1, AML (pediatric), 72 h; AKR1C3 expression Low
Experimental: as §3, §4

PF-382 cell line = experiment: Ex vivo cytotoxicity assay, leukemia cell lines; assay type: cell-based; settings: Homo sapiens
Experimental: as §3, §4

[6] = system: HL-60, clone 15 cell line; experiment: Ex vivo cytotoxicity assay, leukemia cell lines; assay type: cell-based; settings: Homo sapiens; Table 5: HL-60, clone 15, APL, 72 h; AKR1C3 expression Low
Experimental: as §3, §4

KG-1 cell line = experiment: Ex vivo cytotoxicity assay, leukemia cell lines; assay type: cell-based; settings: Homo sapiens; Table 5: KG-1, Erythroleukemia, 72 h; AKR1C3 expression High
Experimental: as §3, §4

GR-ST cell line = experiment: Ex vivo cytotoxicity assay, leukemia cell lines; assay type: cell-based; settings: Homo sapiens, B-ALL (transfected with G-CSF)
Experimental: as §3, §4

Jurkat cell line = experiment: Ex vivo cytotoxicity assay, leukemia cell lines; assay type: cell-based; settings: Homo sapiens
Experimental: as §3, §4

SUP-T1 cell line = experiment: Ex vivo cytotoxicity assay, leukemia cell lines; assay type: cell-based; settings: Homo sapiens
Experimental: as §3, §4

K-562 cell line = experiment: Ex vivo cytotoxicity assay, leukemia cell lines; assay type: cell-based; settings: Homo sapiens, K562; Table 5: K-562, CML, 72 h; AKR1C3 expression Low
Experimental: as §3, §4

[7] = system: hepatocellular carcinoma cell lines; experiment: Ex vivo proliferation assay, group of hepatocellular carcinoma cell lines (summary); assay type: cell-based, human
Experimental: as §1, §2
On the other hand, cells expressing low AKR1C3 were less sensitive to OBI-3424, where IC50 values were higher than 1000 nM.

For `C[C@H](OP(=O)(N1CC1)N1CC1)c1ccc([N+](=O)[O-])c(Oc2cccc(C(=O)N(C)C)c2)c1` [OBI-3424], the IC50 [1] was 0.21 nM, the IC50 [2] was 4.5 nM and the IC50 [3] was 1.1 nM. It also gave an IC50 (NCI-H23 NSCLC cell line) greater than 1000 nM, an IC50 (NCI-H522 NSCLC cell line) greater than 1000 nM and an IC50 [4] of 2.3 nM. The IC50 [5] was 2.5 nM, the IC50 (NCIH1755 NSCLC cell line) was 8.2 nM and the IC50 (NCIH2106 NSCLC cell line) was greater than 1000 nM. It also gave an IC50 (TF-1 cell line) of 2.8 nM, an IC50 (TALL-1 cell line; Table 4: TALL-1, T-ALL (child), AKR1C3 expression Strong, CellTiter-Glo) of 30 nM and an IC50 (TALL-1 cell line; Table 5: TALL-1, T-ALL (pediatric), 72 h, AKR1C3 expression Medium) of 30 nM. The IC50 (THP-1 cell line) was greater than 1000 nM, the IC50 (PF-382 cell line; Table 4: PF-382, T-ALL (child), AKR1C3 expression Strong, CellTiter-Glo) was 15 nM and the IC50 (PF-382 cell line; Table 5: PF-382, T-ALL (pediatric), 72 h, AKR1C3 expression Medium) was 15 nM. It also gave an IC50 [6] of 87 nM, an IC50 (KG-1 cell line) of 153 nM and an IC50 (GR-ST cell line; Table 4: GR-ST, AKR1C3 expression Strong, CellTiter-Glo) of 9.9 nM. The IC50 (GR-ST cell line; Table 5: GR-ST, 72 h, AKR1C3 expression Medium) was 9.9 nM, the IC50 (Jurkat cell line; Table 4: Jurkat, T-ALL (child), AKR1C3 expression Medium, CellTiter-Glo) was 40 nM and the IC50 (Jurkat cell line; Table 5: Jurkat, T-ALL (pediatric), 72 h, AKR1C3 expression Low) was 40 nM. It also gave an IC50 (SUP-T1 cell line; Table 4: SUP-T1, T-ALL (child), AKR1C3 expression Strong, CellTiter-Glo) of 3 nM, an IC50 (SUP-T1 cell line; Table 5: SUP-T1, T-ALL (pediatric), 72 h, AKR1C3 expression Medium) of 3 nM and an IC50 (K-562 cell line) greater than 1000 nM. The IC50 ([7]; Homo sapiens, cells expressing low AKR1C3) was greater than 1000 nM and the IC50 values ([7]; hepatocellular carcinoma cell lines with high AKR1C3 expression at both protein and RNA levels) was “low nanomolar range”.
